These results are taken from US10906915B2, “Substituted pyrazoloazepin-4-ones and their use as phosphodiesterase inhibitors” (LEO Pharma A/S, priority 2016, dated 2021).

For orientation: IC50 means the midpoint of a concentration-inhibition curve.

Chain of human PDE4D catalytic domain (Q08499 380-740 limits assumed): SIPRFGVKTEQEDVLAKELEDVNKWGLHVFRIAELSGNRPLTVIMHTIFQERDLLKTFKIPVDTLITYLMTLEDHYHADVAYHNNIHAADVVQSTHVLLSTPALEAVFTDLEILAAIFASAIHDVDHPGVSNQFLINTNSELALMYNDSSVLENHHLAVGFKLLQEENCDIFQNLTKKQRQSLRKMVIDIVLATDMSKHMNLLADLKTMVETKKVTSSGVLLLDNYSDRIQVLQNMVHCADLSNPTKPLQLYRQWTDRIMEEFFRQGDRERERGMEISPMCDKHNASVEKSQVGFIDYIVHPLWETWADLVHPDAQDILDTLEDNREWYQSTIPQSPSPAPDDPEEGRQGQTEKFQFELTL

This test addresses human PDE4D catalytic domain (UniProt no. Q08499) (Homo sapiens (Human), UniProt Q08499). Kind of test: PDE4 assay (TR-FRET, FAM-cAMP cleavage). Particulars: read-out: PDE4 IC50 range. The format is biochemical. The procedure, abridged: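 Read-out is time-resolved FRET from Tb donor to FAM-AMP captured on trivalent-metal nanoparticles added to stop the reaction. Substrate was a mix of plain and FAM-labelled cAMP, cleaved by human PDE4D catalytic domain ([…]) with titrated compound; IC50 ranges (nM) versus controls.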
Regarding `CCc1nn(CC(C)(C)COC(=O)c2ccc(C)cc2)c2c1C(=O)NCC1(CCOCC1)C2` [Example 283, [3-(3-ethyl-4-oxo-spiro[6,8-dihydro-5H-pyrazolo[4,3-c]azepine-7,4′-tetrahydropyran]-1-yl)-2,2-dimethyl-propyl] 4-methylbenzoate], the IC50 was < 100 nM.

With `CCc1nn(CC(C)(C)COC(=O)c2cccc(F)c2)c2c1C(=O)NCC1(CCOCC1)C2` [Example 284, [3-(3-ethyl-4-oxo-spiro[6,8-dihydro-5H-pyrazolo[4,3-c]azepine-7,4′-tetrahydropyran]-1-yl)-2,2-dimethyl-propyl] 3-fluorobenzoate], the IC50 was < 100 nM.

With `CCc1nn(CC(C)(C)COC(=O)c2ccc(F)cc2)c2c1C(=O)NCC1(CCOCC1)C2` [Example 285, [3-(3-ethyl-4-oxo-spiro[6,8-dihydro-5H-pyrazolo[4,3-c]azepine-7,4′-tetrahydropyran]-1-yl)-2,2-dimethyl-propyl] 4-fluorobenzoate], the IC50 is < 100 nM.

Take `CCc1nn(CC(C)(C)COC(=O)c2ccccc2F)c2c1C(=O)NCC1(CCOCC1)C2` [Example 286, [3-(3-ethyl-4-oxo-spiro[6,8-dihydro-5H-pyrazolo[4,3-c]azepine-7,4′-tetrahydropyran]-1-yl)-2,2-dimethyl-propyl] 2-fluorobenzoate]: the IC50 was < 100 nM.

With `CCc1nn(CC(C)(C)COC(=O)c2cccc(C#N)c2)c2c1C(=O)NCC1(CCOCC1)C2` [Example 287, [3-(3-ethyl-4-oxo-spiro[6,8-dihydro-5H-pyrazolo[4,3-c]azepine-7,4′-tetrahydropyran]-1-yl)-2,2-dimethyl-propyl] 3-cyanobenzoate], the IC50 was < 100 nM.

As to `CCc1nn(CC(C)(C)COC(=O)c2ccc(C#N)cc2)c2c1C(=O)NCC1(CCOCC1)C2` [Example 288, [3-(3-ethyl-4-oxo-spiro[6,8-dihydro-5H-pyrazolo[4,3-c]azepine-7,4′-tetrahydropyran]-1-yl)-2,2-dimethyl-propyl] 4-cyanobenzoate], the IC50 was < 100 nM.

As for `CCc1nn(CC(C)(C)COC(=O)c2cccc(OC)c2)c2c1C(=O)NCC1(CCOCC1)C2` [Example 289, [3-(3-ethyl-4-oxo-spiro[6,8-dihydro-5H-pyrazolo[4,3-c]azepine-7,4′-tetrahydropyran]-1-yl)-2,2-dimethyl-propyl] 3-methoxybenzoate], the IC50 is < 100 nM.

As to `CCc1nn(CC(C)(C)COC(=O)c2ccc(Cl)cc2)c2c1C(=O)NCC1(CCOCC1)C2` [Example 290, [3-(3-ethyl-4-oxo-spiro[6,8-dihydro-5H-pyrazolo[4,3-c]azepine-7,4′-tetrahydropyran]-1-yl)-2,2-dimethyl-propyl] 4-chlorobenzoate], the half-inhibitory concentration (IC50) is < 100 nM.

In the case of `CCc1nn(CC(C)(C)COC(=O)c2cccc(Cl)c2)c2c1C(=O)NCC1(CCOCC1)C2` [Example 291, [3-(3-ethyl-4-oxo-spiro[6,8-dihydro-5H-pyrazolo[4,3-c]azepine-7,4′-tetrahydropyran]-1-yl)-2,2-dimethyl-propyl] 3-chlorobenzoate], the concentration for half-maximal inhibition (IC50) was < 100 nM.

Consider `CCc1nn(CC(C)(C)COC(=O)c2ccccc2Cl)c2c1C(=O)NCC1(CCOCC1)C2` [Example 292, [3-(3-ethyl-4-oxo-spiro[6,8-dihydro-5H-pyrazolo[4,3-c]azepine-7,4′-tetrahydropyran]-1-yl)-2,2-dimethyl-propyl] 2-chlorobenzoate], for which the IC50 is < 100 nM.

On to `CCc1nn(CC(C)(C)COC(=O)c2cc(F)cc(F)c2)c2c1C(=O)NCC1(CCOCC1)C2` [Example 293, [3-(3-ethyl-4-oxo-spiro[6,8-dihydro-5H-pyrazolo[4,3-c]azepine-7,4′-tetrahydropyran]-1-yl)-2,2-dimethyl-propyl] 3,5-difluorobenzoate], for which the IC50 is < 100 nM.

Regarding `CCc1nn(CC(C)(C)COC(=O)c2ccc(F)c(F)c2)c2c1C(=O)NCC1(CCOCC1)C2` [Example 294, [3-(3-ethyl-4-oxo-spiro[6,8-dihydro-5H-pyrazolo[4,3-c]azepine-7,4′-tetrahydropyran]-1-yl)-2,2-dimethyl-propyl] 3,4-difluorobenzoate], the half-maximal inhibitory concentration (IC50) is < 100 nM.

Regarding `CCc1nn(CC(C)(C)COC(=O)c2ccc(C(C)=O)cc2)c2c1C(=O)NCC1(CCOCC1)C2` [Example 295, [3-(3-ethyl-4-oxo-spiro[6,8-dihydro-5H-pyrazolo[4,3-c]azepine-7,4′-tetrahydropyran]-1-yl)-2,2-dimethyl-propyl] 4-acetylbenzoate], the half-maximal inhibitory concentration (IC50) is < 100 nM.

`CCc1nn(CC(C)(C)COC(=O)c2cccc(C(C)=O)c2)c2c1C(=O)NCC1(CCOCC1)C2` [Example 296, [3-(3-ethyl-4-oxo-spiro[6,8-dihydro-5H-pyrazolo[4,3-c]azepine-7,4′-tetrahydropyran]-1-yl)-2,2-dimethyl-propyl] 3-acetylbenzoate]: the IC50 is < 100 nM.

For the molecule `CCc1nn(CC(C)(C)COC(=O)c2ccc(C#N)c(F)c2)c2c1C(=O)NCC1(CCOCC1)C2` [Example 297, [3-(3-ethyl-4-oxo-spiro[6,8-dihydro-5H-pyrazolo[4,3-c]azepine-7,4′-tetrahydropyran]-1-yl)-2,2-dimethyl-propyl] 4-cyano-3-fluoro-benzoate], the IC50 is < 100 nM.

As for `CCc1nn(CC(C)(C)COC(=O)c2ccc(C#N)cc2F)c2c1C(=O)NCC1(CCOCC1)C2` [Example 298, [3-(3-ethyl-4-oxo-spiro[6,8-dihydro-5H-pyrazolo[4,3-c]azepine-7,4′-tetrahydropyran]-1-yl)-2,2-dimethyl-propyl] 4-cyano-2-fluoro-benzoate], the half-inhibitory concentration (IC50) is < 100 nM.

As for `CCOc1cccc(C(=O)OCC(C)(C)Cn2nc(CC)c3c2CC2(CCOCC2)CNC3=O)c1` [Example 299, [3-(3-ethyl-4-oxo-spiro[6,8-dihydro-5H-pyrazolo[4,3-c]azepine-7,4′-tetrahydropyran]-1-yl)-2,2-dimethyl-propyl] 3-ethoxybenzoate], the 50% inhibitory concentration (IC50) is < 100 nM.

`CCc1nn(CC(C)(C)COC(=O)c2c(F)cccc2Cl)c2c1C(=O)NCC1(CCOCC1)C2` [Example 300, [3-(3-ethyl-4-oxo-spiro[6,8-dihydro-5H-pyrazolo[4,3-c]azepine-7,4′-tetrahydropyran]-1-yl)-2,2-dimethyl-propyl] 2-chloro-6-fluoro-benzoate]: the IC50 was < 100 nM.

Take `CCc1nn(CC(C)(C)COC(=O)c2ccc(F)cc2Cl)c2c1C(=O)NCC1(CCOCC1)C2` [Example 301, [3-(3-ethyl-4-oxo-spiro[6,8-dihydro-5H-pyrazolo[4,3-c]azepine-7,4′-tetrahydropyran]-1-yl)-2,2-dimethyl-propyl] 2-chloro-4-fluoro-benzoate]: the half-maximal inhibitory concentration (IC50) was < 100 nM.

For `CCc1nn(CC(C)(C)COC(=O)c2cccc(C(F)(F)F)c2)c2c1C(=O)NCC1(CCOCC1)C2` [Example 302, [3-(3-ethyl-4-oxo-spiro[6,8-dihydro-5H-pyrazolo[4,3-c]azepine-7,4′-tetrahydropyran]-1-yl)-2,2-dimethyl-propyl] 3-(trifluoromethyl)benzoate], the concentration for half-maximal inhibition (IC50) was < 100 nM.

For `CCc1nn(CC(C)(C)COC(=O)c2ccccc2C(F)(F)F)c2c1C(=O)NCC1(CCOCC1)C2` [Example 303, [3-(3-ethyl-4-oxo-spiro[6,8-dihydro-5H-pyrazolo[4,3-c]azepine-7,4′-tetrahydropyran]-1-yl)-2,2-dimethyl-propyl] 2-(trifluoromethyl)benzoate], the half-inhibitory concentration (IC50) is < 100 nM.
